{"source": "patent US20030130225A1", "about": "“Novel methods of treating local fungal and bacterial infections” (priority 2001, published 2003)", "key": {"Candida albicans": {"system": "Candida albicans", "details": "for rabbits with no Candida albicans in culture of the vaginal mucosa: 72 hours post dosage", "from_the_text": "Thirty-five female albino rabbits vaginally infected with Candida albicans were randomly assigned to seven dosage groups, 5 rabbits per group."}, "Candida vaginitis": {"system": "Candida vaginitis", "details": "single dose oral; cited from earlier work"}, "[1]": {"details": "human, in vivo, po; cited from earlier work"}}, "note": "Like-named read-outs stand apart in the source and are kept apart here.", "data": [{"smiles": "OC(Cn1cncn1)(Cn1cncn1)c1ccc(F)cc1F", "note": "[Fluconazole, fluconazole]", "values": [{"measurement": "rabbits with no Candida albicans in culture of the vaginal mucosa", "setting": "Candida albicans; 0.5 mg/kg oral fluconazole once", "value": 40, "unit": "%"}, {"measurement": "rabbits with no Candida albicans in culture of the vaginal mucosa", "setting": "Candida albicans; 1.0 mg/kg oral fluconazole once", "value": 100, "unit": "%"}, {"measurement": "rabbits with no Candida albicans in culture of the vaginal mucosa", "setting": "Candida albicans; 2.0 mg/kg oral fluconazole once", "value": 60, "unit": "%"}, {"measurement": "irritation to the vaginal epithelium", "setting": "Candida albicans; rabbit, in vivo", "value": "mild irritation"}, {"measurement": "average time for the onset of symptom relief", "setting": "Candida vaginitis", "value": "about 2.4 days"}, {"measurement": "time to reach peak plasma concentration", "setting": "[1]", "value": "about 3 hours"}, {"measurement": "time to reach vaginal tissue and vaginal fluid", "setting": "[1]", "value": "2 to 3", "unit": "days"}]}]}
